The data set deals with T1, COX-2 (Rattus norvegicus, UniProt P35355).
T1 construct: endogenous COX-2 expression in naïve rats; from tissue; host or cells: brain of living naive rats
T1 sequence (P35355 18-604): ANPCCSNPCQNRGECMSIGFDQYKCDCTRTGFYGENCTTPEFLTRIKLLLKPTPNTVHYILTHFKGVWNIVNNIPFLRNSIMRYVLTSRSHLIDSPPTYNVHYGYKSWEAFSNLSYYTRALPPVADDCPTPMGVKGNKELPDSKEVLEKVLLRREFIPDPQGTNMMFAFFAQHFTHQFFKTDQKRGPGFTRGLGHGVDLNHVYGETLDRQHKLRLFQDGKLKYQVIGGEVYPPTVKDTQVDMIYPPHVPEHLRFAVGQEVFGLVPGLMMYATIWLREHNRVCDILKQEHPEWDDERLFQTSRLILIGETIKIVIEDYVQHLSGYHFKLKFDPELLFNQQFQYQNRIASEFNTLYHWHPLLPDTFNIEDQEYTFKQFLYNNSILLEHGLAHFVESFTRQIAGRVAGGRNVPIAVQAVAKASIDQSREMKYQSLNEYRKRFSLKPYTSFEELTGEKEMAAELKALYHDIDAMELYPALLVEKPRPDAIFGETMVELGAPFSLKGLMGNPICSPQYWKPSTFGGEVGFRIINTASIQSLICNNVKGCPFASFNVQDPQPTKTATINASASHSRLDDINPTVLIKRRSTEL
Kind of data set: PET neuroimaging of naïve rats. As to conditions: in vivo PET, result in words. The protocol:
deepest would be injected and allowed to perfuse for 15 min until all three injections were completed.
In some experimental groups, mannitol was injected intraperitoneally (IP) or co -administered with the […]
After the surgical procedure was completed, animals were given enough time to recover (generally 28 days post-surgery) to facilitate cellular transduction with the AAV as well as subsequent expression of COX -2 and GFP, before subsequent imaging or IHC interrogation was conducted.
Rodent PET/MRI Acquisition
All PET and MRI experimental procedures were acquired on a 4.7 Tesla PET-MRI scanner using a B-GA20S HP gradient coil with a PET Insert Si 198 (Bruker Biospin, Billerica, MA). Custom 3D-printed cradles were used to secure anesthetized animals in the scanner. Rat and mice experimental groups were imaged separately. For rats, one animal was placed head-prone, and the other was placed tail-prone, aligning their heads in the scanner. For rat blocking experiments celecoxib was formulated in 20% ethanol, 30% polyethylene glycol and 50% saline and diluted appropriately to administer 1 mL/kg. For mice, up to six mice were inserted, two head prone and four tail prone. ParaVision 6 (Bruker) was used to acquire MR images, and ParaVision 360 (Bruker) was used to obtain PET images. […]

Structures are written as SMILES.

Regarding `[11CH3]S(=O)(=O)c1ccc(-c2cccc(NCc3ccoc3)n2)cc1` [[^11C]BRD1158], the brain uptake entry is “rapid and robust brain uptake”.
